Tests used:
[1] = system: Tyrosine-protein kinase ABL1 (Homo sapiens), P00519 [E255K]; conditions: Compound concentration 100.0 nM
[2] = system: Tyrosine-protein kinase ABL1 (Homo sapiens), P00519 [T315I]; conditions: Compound concentration 100.0 nM
[3] = target: Tyrosine-protein kinase ABL1 (Homo sapiens) (UniProt P00519); conditions: Compound concentration 100.0 nM
[4] = target: Mitogen-activated protein kinase kinase kinase 6 (Homo sapiens) (UniProt O95382); conditions: Compound concentration 100.0 nM
[5] = target: Aurora kinase B (Homo sapiens) (UniProt Q96GD4); conditions: Compound concentration 100.0 nM
Sequence of Aurora kinase B (Homo sapiens) (Q96GD4 whole entry): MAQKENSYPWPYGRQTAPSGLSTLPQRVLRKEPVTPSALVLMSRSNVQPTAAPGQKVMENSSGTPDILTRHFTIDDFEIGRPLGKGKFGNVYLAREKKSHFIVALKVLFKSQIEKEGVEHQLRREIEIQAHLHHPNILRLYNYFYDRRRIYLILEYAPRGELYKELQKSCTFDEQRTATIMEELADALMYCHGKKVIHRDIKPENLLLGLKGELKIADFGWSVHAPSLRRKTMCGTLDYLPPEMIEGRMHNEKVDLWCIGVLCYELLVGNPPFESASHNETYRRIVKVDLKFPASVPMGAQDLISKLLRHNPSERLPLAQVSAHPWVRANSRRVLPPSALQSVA

[6] = system: Serine/threonine-protein kinase B-raf (Homo sapiens), P15056 [V600E]; conditions: Compound concentration 100.0 nM
[7] = target: Serine/threonine-protein kinase BRSK2 (Homo sapiens) (UniProt Q8IWQ3); conditions: Compound concentration 100.0 nM
Sequence of Serine/threonine-protein kinase BRSK2 (Homo sapiens) (Q8IWQ3 whole entry): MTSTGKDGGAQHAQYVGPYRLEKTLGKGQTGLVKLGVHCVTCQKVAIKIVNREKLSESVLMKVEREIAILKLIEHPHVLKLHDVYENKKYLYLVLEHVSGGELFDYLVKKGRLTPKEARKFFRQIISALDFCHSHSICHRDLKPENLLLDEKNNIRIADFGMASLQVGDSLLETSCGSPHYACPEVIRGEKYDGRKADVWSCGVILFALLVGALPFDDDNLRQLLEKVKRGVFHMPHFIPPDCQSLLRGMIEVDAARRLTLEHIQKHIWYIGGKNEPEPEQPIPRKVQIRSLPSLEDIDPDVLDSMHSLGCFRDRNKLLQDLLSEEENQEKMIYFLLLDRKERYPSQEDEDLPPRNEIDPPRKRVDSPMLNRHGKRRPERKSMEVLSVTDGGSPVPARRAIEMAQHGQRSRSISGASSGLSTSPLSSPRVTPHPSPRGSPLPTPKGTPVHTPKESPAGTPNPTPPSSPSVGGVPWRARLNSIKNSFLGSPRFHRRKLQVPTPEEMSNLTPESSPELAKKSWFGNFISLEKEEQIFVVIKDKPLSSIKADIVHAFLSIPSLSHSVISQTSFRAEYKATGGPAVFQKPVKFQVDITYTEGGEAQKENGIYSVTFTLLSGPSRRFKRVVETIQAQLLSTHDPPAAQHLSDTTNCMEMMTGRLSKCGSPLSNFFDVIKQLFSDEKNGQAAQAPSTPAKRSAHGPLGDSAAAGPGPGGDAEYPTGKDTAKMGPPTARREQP

[8] = target: Peripheral plasma membrane protein CASK (Homo sapiens) (UniProt O14936); conditions: Compound concentration 100.0 nM
[9] = target: Cyclin-dependent kinase 9 (Homo sapiens) (UniProt P50750); conditions: Compound concentration 100.0 nM
[10] = target: Casein kinase I isoform epsilon (Homo sapiens) (UniProt P49674); conditions: Compound concentration 100.0 nM
Sequence of Casein kinase I isoform epsilon (Homo sapiens) (P49674 whole entry, looked up, canonical isoform): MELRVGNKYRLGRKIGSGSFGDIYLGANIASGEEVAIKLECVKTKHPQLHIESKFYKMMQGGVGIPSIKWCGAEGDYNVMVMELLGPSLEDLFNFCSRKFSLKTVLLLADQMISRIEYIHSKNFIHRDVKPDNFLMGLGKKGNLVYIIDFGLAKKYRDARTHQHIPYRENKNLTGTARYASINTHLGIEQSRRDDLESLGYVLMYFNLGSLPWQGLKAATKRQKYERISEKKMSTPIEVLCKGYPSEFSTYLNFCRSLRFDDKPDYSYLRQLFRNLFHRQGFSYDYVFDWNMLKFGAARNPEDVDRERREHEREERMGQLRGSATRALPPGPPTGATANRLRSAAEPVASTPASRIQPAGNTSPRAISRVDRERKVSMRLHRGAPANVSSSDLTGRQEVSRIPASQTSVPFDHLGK

[11] = target: Serine/threonine-protein kinase DCLK2 (Homo sapiens) (UniProt Q8N568); conditions: Compound concentration 100.0 nM
[12] = target: Dual specificity tyrosine-phosphorylation-regulated kinase 1B (Homo sapiens) (UniProt Q9Y463); conditions: Compound concentration 100.0 nM
[13] = target: Receptor tyrosine-protein kinase erbB-4 (Homo sapiens) (UniProt Q15303); conditions: Compound concentration 100.0 nM
[14] = target: Fibroblast growth factor receptor 3 (Homo sapiens) (UniProt P22607); conditions: Compound concentration 100.0 nM
[15] = system: Receptor-type tyrosine-protein kinase FLT3 (Homo sapiens), P36888 [D835H]; conditions: Compound concentration 100.0 nM
[16] = target: Mitogen-activated protein kinase kinase kinase kinase 1 (Homo sapiens) (UniProt Q92918); conditions: Compound concentration 100.0 nM
[17] = target: Serine/threonine-protein kinase 10 (Homo sapiens) (UniProt O94804); conditions: Compound concentration 100.0 nM
Sequence of Serine/threonine-protein kinase 10 (Homo sapiens) (O94804 whole entry, looked up): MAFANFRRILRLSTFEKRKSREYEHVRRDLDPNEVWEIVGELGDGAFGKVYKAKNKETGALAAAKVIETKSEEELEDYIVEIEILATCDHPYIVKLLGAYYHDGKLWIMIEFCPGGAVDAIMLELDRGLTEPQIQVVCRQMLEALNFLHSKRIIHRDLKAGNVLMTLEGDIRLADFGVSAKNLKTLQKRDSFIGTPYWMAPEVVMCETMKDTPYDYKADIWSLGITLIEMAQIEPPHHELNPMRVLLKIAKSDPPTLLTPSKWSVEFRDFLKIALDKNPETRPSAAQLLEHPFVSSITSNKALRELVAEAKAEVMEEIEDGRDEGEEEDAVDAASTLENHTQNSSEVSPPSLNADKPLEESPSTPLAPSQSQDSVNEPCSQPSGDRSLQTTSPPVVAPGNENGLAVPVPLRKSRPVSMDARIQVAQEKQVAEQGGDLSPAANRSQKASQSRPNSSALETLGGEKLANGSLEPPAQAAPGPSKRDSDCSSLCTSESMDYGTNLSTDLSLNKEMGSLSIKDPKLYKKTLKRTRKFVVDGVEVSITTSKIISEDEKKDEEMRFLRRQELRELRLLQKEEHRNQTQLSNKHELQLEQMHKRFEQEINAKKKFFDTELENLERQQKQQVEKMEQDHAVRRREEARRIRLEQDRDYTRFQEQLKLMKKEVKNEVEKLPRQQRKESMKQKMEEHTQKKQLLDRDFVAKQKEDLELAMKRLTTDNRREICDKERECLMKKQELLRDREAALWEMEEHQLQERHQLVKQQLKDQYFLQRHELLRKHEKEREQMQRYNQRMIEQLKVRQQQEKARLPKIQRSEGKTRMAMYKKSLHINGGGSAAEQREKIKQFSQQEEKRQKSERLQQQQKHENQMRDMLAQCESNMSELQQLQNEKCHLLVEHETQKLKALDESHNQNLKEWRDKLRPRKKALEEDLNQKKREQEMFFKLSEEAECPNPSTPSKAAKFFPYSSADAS

[18] = target: Mitogen-activated protein kinase kinase kinase 4 (Homo sapiens) (UniProt Q9Y6R4); conditions: Compound concentration 100.0 nM
[19] = target: Dual specificity mitogen-activated protein kinase kinase 1 (Homo sapiens) (UniProt Q02750); conditions: Compound concentration 100.0 nM
[20] = system: Hepatocyte growth factor receptor (Homo sapiens), P08581 [M1250T]; conditions: Compound concentration 100.0 nM
[21] = target: MAP kinase-interacting serine/threonine-protein kinase 1 (Homo sapiens) (UniProt Q9BUB5); conditions: Compound concentration 100.0 nM
[22] = target: Mitogen-activated protein kinase kinase kinase 9 (Homo sapiens) (UniProt P80192); conditions: Compound concentration 100.0 nM
[23] = target: Serine/threonine-protein kinase MRCK beta (Homo sapiens) (UniProt Q9Y5S2); conditions: Compound concentration 100.0 nM
[24] = target: Serine/threonine-protein kinase mTOR (Homo sapiens) (UniProt P42345); conditions: Compound concentration 100.0 nM
[25] = target: Myosin-IIIb (Homo sapiens) (UniProt Q8WXR4); conditions: Compound concentration 100.0 nM
[26] = target: Cyclin-dependent kinase 18 (Homo sapiens) (UniProt Q07002); conditions: Compound concentration 100.0 nM
[27] = target: Platelet-derived growth factor receptor beta (Homo sapiens) (UniProt P09619); conditions: Compound concentration 100.0 nM
[28] = system: Phosphatidylinositol 4,5-bisphosphate 3-kinase catalytic subunit alpha isoform (Homo sapiens), P42336 [C420R]; conditions: Compound concentration 100.0 nM
[29] = system: Phosphatidylinositol 4,5-bisphosphate 3-kinase catalytic subunit alpha isoform (Homo sapiens), P42336 [Q546K]; conditions: Compound concentration 100.0 nM
Sequence of Phosphatidylinositol 4,5-bisphosphate 3-kinase catalytic subunit alpha isoform (Homo sapiens), P42336 [Q546K] (P42336 whole entry Q546K, canonical isoform): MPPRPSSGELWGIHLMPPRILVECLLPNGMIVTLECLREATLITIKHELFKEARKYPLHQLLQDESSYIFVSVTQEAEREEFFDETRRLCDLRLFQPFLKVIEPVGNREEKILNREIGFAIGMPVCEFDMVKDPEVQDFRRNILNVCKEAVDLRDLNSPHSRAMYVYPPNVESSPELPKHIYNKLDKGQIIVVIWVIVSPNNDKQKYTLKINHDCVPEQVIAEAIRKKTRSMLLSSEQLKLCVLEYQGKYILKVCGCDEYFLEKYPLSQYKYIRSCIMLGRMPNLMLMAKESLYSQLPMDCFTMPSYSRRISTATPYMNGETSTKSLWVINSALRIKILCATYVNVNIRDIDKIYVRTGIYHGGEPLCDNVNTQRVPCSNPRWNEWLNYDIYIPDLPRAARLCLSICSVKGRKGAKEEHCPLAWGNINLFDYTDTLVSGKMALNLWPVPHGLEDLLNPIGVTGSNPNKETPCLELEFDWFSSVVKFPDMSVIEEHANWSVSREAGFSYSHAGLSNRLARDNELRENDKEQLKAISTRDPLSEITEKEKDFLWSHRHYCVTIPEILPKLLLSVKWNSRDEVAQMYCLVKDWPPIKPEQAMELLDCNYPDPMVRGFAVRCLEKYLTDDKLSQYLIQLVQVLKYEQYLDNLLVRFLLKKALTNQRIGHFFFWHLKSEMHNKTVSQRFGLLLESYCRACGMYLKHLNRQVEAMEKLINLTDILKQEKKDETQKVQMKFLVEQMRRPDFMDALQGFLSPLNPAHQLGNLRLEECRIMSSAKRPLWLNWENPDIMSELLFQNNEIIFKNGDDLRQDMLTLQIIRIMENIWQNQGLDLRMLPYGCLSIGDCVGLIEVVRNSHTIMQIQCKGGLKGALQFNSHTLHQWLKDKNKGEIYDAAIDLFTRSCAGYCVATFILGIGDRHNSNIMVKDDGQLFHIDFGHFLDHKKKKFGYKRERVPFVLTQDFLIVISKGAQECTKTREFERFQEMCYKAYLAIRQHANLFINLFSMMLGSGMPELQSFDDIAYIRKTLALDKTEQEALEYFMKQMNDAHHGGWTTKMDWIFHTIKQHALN

[30] = target: Phosphatidylinositol 4-phosphate 5-kinase type-1 gamma (Homo sapiens) (UniProt O60331); conditions: Compound concentration 100.0 nM
[31] = target: Membrane-associated tyrosine- and threonine-specific cdc2-inhibitory kinase (Homo sapiens) (UniProt Q99640); conditions: Compound concentration 100.0 nM
Sequence of Membrane-associated tyrosine- and threonine-specific cdc2-inhibitory kinase (Homo sapiens) (Q99640 whole entry): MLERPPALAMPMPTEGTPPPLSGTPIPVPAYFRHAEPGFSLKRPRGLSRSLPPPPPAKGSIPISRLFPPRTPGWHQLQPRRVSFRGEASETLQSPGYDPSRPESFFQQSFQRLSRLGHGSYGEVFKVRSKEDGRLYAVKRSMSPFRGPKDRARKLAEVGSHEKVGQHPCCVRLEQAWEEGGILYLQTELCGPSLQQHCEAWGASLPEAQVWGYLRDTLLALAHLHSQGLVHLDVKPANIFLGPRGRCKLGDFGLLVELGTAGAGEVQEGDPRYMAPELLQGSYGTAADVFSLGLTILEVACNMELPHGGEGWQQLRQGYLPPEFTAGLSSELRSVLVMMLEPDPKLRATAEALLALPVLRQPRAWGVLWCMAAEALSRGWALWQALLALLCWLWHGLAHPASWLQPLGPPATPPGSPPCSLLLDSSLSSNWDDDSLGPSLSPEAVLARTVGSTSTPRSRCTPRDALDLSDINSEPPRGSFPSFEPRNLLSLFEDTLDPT

[32] = target: cGMP-dependent protein kinase 2 (Homo sapiens) (UniProt Q13237); conditions: Compound concentration 100.0 nM
[33] = target: Proto-oncogene tyrosine-protein kinase receptor Ret (Homo sapiens) (UniProt P07949); conditions: Compound concentration 100.0 nM
[34] = target: Ribosomal protein S6 kinase alpha-5 (Homo sapiens) (UniProt O75582); conditions: Compound concentration 100.0 nM
[35] = target: Ribosomal protein S6 kinase alpha-2 (Homo sapiens) (UniProt Q15349); conditions: Compound concentration 100.0 nM
[36] = target: Uncharacterized serine/threonine-protein kinase SBK3 (Homo sapiens) (UniProt P0C264); conditions: Compound concentration 100.0 nM
[37] = target: NUAK family SNF1-like kinase 2 (Homo sapiens) (UniProt Q9H093); conditions: Compound concentration 100.0 nM
[38] = target: Serine/threonine-protein kinase TAO1 (Homo sapiens) (UniProt Q7L7X3); conditions: Compound concentration 100.0 nM
Sequence of Serine/threonine-protein kinase TAO1 (Homo sapiens) (Q7L7X3 whole entry): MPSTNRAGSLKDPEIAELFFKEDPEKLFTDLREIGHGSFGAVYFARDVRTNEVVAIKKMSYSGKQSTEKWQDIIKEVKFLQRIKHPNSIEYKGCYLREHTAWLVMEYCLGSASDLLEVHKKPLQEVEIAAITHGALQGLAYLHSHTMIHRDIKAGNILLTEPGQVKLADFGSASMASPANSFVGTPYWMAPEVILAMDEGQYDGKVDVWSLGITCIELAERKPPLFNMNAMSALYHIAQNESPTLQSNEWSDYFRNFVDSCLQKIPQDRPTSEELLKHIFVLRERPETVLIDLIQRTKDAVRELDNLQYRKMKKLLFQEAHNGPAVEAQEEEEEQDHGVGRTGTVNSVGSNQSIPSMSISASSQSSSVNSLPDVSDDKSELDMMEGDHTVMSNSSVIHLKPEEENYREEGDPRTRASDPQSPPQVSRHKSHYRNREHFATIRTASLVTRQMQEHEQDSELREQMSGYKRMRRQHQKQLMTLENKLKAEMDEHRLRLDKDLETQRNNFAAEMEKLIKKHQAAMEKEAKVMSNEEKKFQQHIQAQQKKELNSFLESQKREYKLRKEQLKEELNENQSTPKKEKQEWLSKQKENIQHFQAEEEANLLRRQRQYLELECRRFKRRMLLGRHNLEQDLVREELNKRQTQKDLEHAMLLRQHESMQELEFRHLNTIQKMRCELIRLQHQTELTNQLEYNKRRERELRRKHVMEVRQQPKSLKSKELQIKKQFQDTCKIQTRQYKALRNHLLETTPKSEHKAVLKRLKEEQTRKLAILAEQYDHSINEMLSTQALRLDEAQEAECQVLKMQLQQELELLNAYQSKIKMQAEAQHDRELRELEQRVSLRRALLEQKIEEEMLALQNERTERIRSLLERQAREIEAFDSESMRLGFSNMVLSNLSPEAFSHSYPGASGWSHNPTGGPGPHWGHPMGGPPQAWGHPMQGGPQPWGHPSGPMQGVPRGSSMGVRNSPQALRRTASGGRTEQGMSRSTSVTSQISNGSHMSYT

[39] = target: Angiopoietin-1 receptor (Homo sapiens) (UniProt Q02763); conditions: Compound concentration 100.0 nM
[40] = target: Tyrosine-protein kinase Yes (Homo sapiens) (UniProt P07947); conditions: Compound concentration 100.0 nM
[41] = target: 5-hydroxytryptamine receptor 1B (Homo sapiens) (UniProt P28222); conditions: Compound concentration 10.0 uM
[42] = target: GABA-A receptor; anion channel (Rattus norvegicus) (UniProt O09028+P15431+P18506+P18508+P19969+P20236+P23574+P23576+P28471+P28473+P30191+P62813+P63079+P63138+Q91ZM7+Q9ES14); conditions: Compound concentration 10.0 uM
[43] = target: Beta-1 adrenergic receptor (Homo sapiens) (UniProt P08588); conditions: Compound concentration 10.0 uM

Cc1ccc(-c2cnc([C@@]3(O)CC[C@H](C(=O)O)C(C)(C)C3)s2)cc1Nc1cccc(C(F)(F)F)n1 [MRL-SYKi-NC]
inactive: residual activity [1] 80.8% | residual activity [2] 88% | residual activity [3] 100% | residual activity [4] 100% | residual activity [5] 93.1% | residual activity [6] 100% | residual activity [7] 60.7% | residual activity [8] 100% | residual activity [9] 100% | residual activity [10] 87.6% | residual activity [11] 100% | residual activity [12] 97.4% | residual activity [13] 81.2% | residual activity [14] 100% | residual activity [15] 100% | residual activity [16] 100% | residual activity [17] 74.5% | residual activity [18] 100% | residual activity [19] 95% | residual activity [20] 89% | residual activity [21] 75% | residual activity [22] 100% | residual activity [23] 91.6% | residual activity [24] 84.6% | residual activity [25] 100% | residual activity [26] 100% | residual activity [27] 100% | residual activity [28] 85.3% | residual activity [29] 100% | residual activity [30] 100% | residual activity [31] 93.1% | residual activity [32] 69.9% | residual activity [33] 100% | residual activity [34] 71.4% | residual activity [35] 100% | residual activity [36] 100% | residual activity [37] 93.1% | residual activity [38] 89.5% | residual activity [39] 95.2% | residual activity [40] 100% | inhibition [41] 20.2% | inhibition [42] 20.3% | inhibition [43] 10.3%

Cc1cc(Nc2nccc(C)n2)cc(-c2cnc([C@@]3(O)CC[C@H](C(=O)O)C(C)(C)C3)s2)c1 [MRL-SYKi]
inactive: residual activity [1] 55.1% | residual activity [2] 100% | residual activity [3] 63.3% | residual activity [4] 69.5% | residual activity [5] 89% | residual activity [6] 100% | residual activity [7] 100% | residual activity [8] 64.9% | residual activity [9] 100% | residual activity [10] 100% | residual activity [11] 90.1% | residual activity [12] 69.4% | residual activity [13] 81.9% | residual activity [14] 88.2% | residual activity [15] 70.7% | residual activity [16] 100% | residual activity [17] 100% | residual activity [18] 67.4% | residual activity [19] 100% | residual activity [20] 93.7% | residual activity [21] 94.8% | residual activity [22] 90.4% | residual activity [23] 100% | residual activity [24] 77.7% | residual activity [25] 76.1% | residual activity [26] 100% | residual activity [27] 100% | residual activity [28] 99.9% | residual activity [29] 81.6% | residual activity [30] 92.4% | residual activity [31] 100% | residual activity [32] 100% | residual activity [33] 98.8% | residual activity [34] 100% | residual activity [35] 86% | residual activity [36] 100% | residual activity [37] 100% | residual activity [38] 100% | residual activity [39] 99% | residual activity [40] 100% | inhibition [41] 11.6% | inhibition [42] -2.68% | inhibition [43] -9.08%

Reference: ChEMBL document CHEMBL4507285, “Data for DCP probe MRL-SYKi” (2021)
